{"source": "paper PMC8481536", "about": "“Wells–Dawson phosphotungstates as mushroom tyrosinase inhibitors: a speciation study” (Scientific Reports, 2021)", "origin": "cited, not measured here", "target": "T1, AbPPO4 (Agaricus bisporus, UniProt C7FF05, S179N/V121A)", "T1 construct": "GST (glutathione-S-transferase) (N, cleaved yes); made in house; host or cells: E. coli BL21(DE3)", "T1 sequence (C7FF05 1-383 V121A/S179N)": "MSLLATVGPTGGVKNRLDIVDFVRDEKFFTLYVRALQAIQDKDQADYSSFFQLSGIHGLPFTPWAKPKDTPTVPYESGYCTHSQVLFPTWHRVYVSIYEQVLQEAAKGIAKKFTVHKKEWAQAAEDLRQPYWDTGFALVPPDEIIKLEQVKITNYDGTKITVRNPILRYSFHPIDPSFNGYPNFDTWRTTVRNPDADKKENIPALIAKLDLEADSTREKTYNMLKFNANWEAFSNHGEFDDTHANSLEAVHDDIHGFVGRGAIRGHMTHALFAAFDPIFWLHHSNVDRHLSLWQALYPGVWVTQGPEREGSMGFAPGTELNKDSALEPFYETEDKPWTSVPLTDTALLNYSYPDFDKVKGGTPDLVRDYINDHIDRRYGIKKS", "conditions": "cited from earlier work", "data": [{"smiles": "N[C@@H](Cc1ccc(O)c(O)c1)C(=O)O", "note": "[L-DOPA, L-3,4−dihydroxyphenylalanine]", "values": [{"measurement": "Km", "result": 26.1, "unit": "mM"}]}]}
